Laboratory results reported in patent US9200265B2, “Anti-cocaine compositions and treatment” (priority 2006, dated 2015).

Legend:
CocE [1] = target: T1, CocE (Rhodococcus sp., UniProt Q9L9D7); assay: Stabilization against 37° C.-induced formation of high molecular weight CocE aggregates (gel); format: physicochemical, Rhodococcus sp. MB 1; details: 0.1 mg/ml enzyme, mM range
T1 construct: generating a full-length CocE gene encoding the T172R mutation; His6 (C); made in house; host or cells: E. coli (pET-22b(+))
Description: Plasmids containing the mutations were transformed into E. coli BL21 cells and IPTG-induced enzyme was purified on Ni-Agarose. Expressed proteins were then tested for enzymatic activity and for thermostability at 37° C. Enzyme activity was measured using the spectrophotometric assay as described in Example 1. Thermostability was also tested via the spectrophotometric assay by pre-incubation of both wild-type and mutants at 37° C. for various times. Additionally, the nature of the thermo-instability of both the wild-type and T172R mutant was analyzed by polyacrylamide gel electrophoresis under denaturing and non-denaturing conditions. Briefly, mutant and wild-type enzyme at 0.1 mg/ml were incubated at 37° C. for various time-points, cooled to 4° C., mixed with SDS-loading dye containing-mercaptoethanol and run on 10% SDS-PAGE gels (denaturing conditions) or run on native 10% polyacrylamide gels (non-denaturing conditions) at 4° C. Gels were fixed with 10% methanol, 7% acetic acid for 30 minutes, and then stained with Sypro-Ruby protein gel stain (Molecular Probes, Invitrogen) for 3 hours. Protein staining was visualized under UV-light using an AlphaImager™ 3400 (Alpha Innotech). Finally, the exact melting temperature of both the wild-type and T172R mutant were determined by circular dichroism using a JASCO-810 spectropolarimeter driven by a JASCO V500/FP-750 analysis program for Windows. The CD spectra were measured in millidegrees and normalized against PBS buffer.
(§1) Cocaine esterase (CocE) cleaves cocaine to produce Benzoic acid and Ecgonine methyl ester. Briefly, alternative substrates and inhibitors of cocaine, as well as compounds able to thermostabilize the enzyme, were investigated generally by substituting amide and thiol analogues at the reactive ester bond, or removing the bond (for inhibitors), substituting benzoyl analogues in place of the benzoic acid leaving group, and/or removing or altering the methyl-ester group on the ecgonine portion of the molecule. As discussed below, it was determined that some substrates, products, and inhibitors stabilized thermal denaturation of wild type CocE, as well as prevented thermally-induced aggregation in gel electrophoresis.
(§2) Cocaine is the natural substrate of Cocaine esterase (CocE). Cocaine cleavage was monitored by a drop in absorbance at 240 nm. Cocaine (mM range) prevented 37° C.-induced formation of high molecular weight CocE aggregates (0.1 mg/ml enzyme concentrations) (see, e.g., FIG. 33). Cocaine (uM quantities) stabilized 37° C.-induced activity loss (see, e.g., FIG. 34), although the mechanism of this stabilization is complicated due to substrate inhibition at higher concentrations.

CocE [2] = target: T1, CocE; assay: Inhibition of CocE (cleavage of 4-nitrophenyl acetate); format: biochemical, Rhodococcus sp. MB 1
Description: Benzoic acid prevented 37° C.-induced formation of high molecular weight CocE aggregates (0.1 mg/ml enzyme concentrations) (see, e.g., FIG. 35). Benzoic acid (uM quantities) stabilized 37° C.-induced activity loss (see, e.g., FIG. 36), although the mechanism of this stabilization is complicated due to substrate inhibition at higher concentrations.
CocE catalyzes the cleavage of 4-nitrophenyl acetate (4NPA) to 4-nitrophenol (4NP) and acetate. The cleavage reaction was monitored by observation of product formation at 400 nm. Both 4NP and 4NPA (mM range) prevented 37° C.-induced formation of high molecular weight CocE aggregates (0.1 mg/ml enzyme concentrations).

CocE [3] = target: T1, CocE; assay: Stabilization of 37° C.-induced CocE activity loss; format: biochemical, Rhodococcus sp. MB 1; details: uM quantities
From the text: as §1, §2

## O=C(O)c1ccccc1 [Benzoic acid]
CocE [1]
  37° C.-induced formation of high molecular weight CocE aggregates: prevented
CocE [2]
  Ki: 310 µM
CocE [3]
  37° C.-induced activity loss: stabilized
